Test results published in ChEMBL document CHEMBL1201862, “PubChem BioAssay data set” (2004).
The source made the active and inactive calls.

Legend:
[1] = HEp-2 cell cytotoxicity, dose response, cytotoxicity control for RSV inhibitor project, HTS (AID 2410); format: functional; settings: human respiratory syncytial virus
[2] = target: Scavenger receptor class B member 1 (Mus musculus, UniProt Q61009); test: inhibitors of SR-BI mediated HDL lipid uptake, dose response, ldlA[mSR-BI] cells, fluorescence, cherry pick (AID 493194); format: functional, cell-based;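 also: cellular uptake of fluorescent DiI-labeled HDL measured as cell fluorescence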
[3] = Luminescence Cell-Based Dose Retest to Confirm Inhibitors of Cancer Stem Cells. [Related pubchem assays (depositor defined):AID2717, AID2721]; format: functional; settings: Homo sapiens
[4] = target: Peroxisome proliferator-activated receptor gamma/Nuclear receptor corepressor 2 (Homo sapiens, UniProt P37231+Q9Y618); format: functional
[5] = target: T1, Histone-lysine N-methyltransferase NSD2 (Homo sapiens, UniProt O96028); format: biochemical
T1 sequence (O96028 whole entry): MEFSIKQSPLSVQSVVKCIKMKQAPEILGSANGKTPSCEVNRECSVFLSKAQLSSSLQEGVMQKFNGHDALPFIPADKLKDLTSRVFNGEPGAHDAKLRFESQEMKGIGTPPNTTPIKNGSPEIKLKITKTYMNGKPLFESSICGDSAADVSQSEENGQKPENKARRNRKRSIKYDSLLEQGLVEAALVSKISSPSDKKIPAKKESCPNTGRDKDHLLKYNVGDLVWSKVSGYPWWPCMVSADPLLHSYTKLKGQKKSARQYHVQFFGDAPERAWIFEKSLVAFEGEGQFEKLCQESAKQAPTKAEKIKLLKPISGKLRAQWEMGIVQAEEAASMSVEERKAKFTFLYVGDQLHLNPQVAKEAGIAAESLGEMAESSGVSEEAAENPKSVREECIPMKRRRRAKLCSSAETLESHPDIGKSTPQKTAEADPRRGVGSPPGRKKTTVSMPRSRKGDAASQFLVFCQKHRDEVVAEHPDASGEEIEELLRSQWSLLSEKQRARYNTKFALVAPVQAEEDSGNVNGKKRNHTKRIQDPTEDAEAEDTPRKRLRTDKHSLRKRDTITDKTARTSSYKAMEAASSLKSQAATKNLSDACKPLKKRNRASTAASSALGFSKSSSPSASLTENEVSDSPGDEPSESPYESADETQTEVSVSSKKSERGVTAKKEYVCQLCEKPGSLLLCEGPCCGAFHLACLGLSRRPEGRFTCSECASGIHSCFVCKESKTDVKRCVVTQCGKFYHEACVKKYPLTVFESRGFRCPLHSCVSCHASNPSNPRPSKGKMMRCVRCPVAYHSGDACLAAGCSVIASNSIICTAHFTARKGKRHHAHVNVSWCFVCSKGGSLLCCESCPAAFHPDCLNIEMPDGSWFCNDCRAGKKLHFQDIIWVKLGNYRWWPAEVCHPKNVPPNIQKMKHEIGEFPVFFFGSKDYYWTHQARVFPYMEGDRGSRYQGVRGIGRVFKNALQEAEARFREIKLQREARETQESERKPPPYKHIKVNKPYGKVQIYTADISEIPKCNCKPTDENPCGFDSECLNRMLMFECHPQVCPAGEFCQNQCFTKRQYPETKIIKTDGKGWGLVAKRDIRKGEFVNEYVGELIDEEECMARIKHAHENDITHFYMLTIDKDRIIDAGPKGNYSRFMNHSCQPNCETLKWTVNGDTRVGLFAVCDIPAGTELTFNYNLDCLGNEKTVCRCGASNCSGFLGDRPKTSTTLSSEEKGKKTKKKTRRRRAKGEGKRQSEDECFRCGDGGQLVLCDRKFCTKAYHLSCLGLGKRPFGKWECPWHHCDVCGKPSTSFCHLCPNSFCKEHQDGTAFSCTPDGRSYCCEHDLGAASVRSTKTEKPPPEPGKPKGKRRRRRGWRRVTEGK

[6] = target: Ras and Rab interactor 1/Tyrosine-protein kinase ABL1 (Homo sapiens, UniProt P00519+Q13671); format: functional;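 also: biochemical TR-FRET dose-response test measuring inhibition of binding between Rin1 and Abl proteins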
[7] = target: Photoreceptor-specific nuclear receptor (Homo sapiens, UniProt Q9Y5X4); format: functional;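 also: potency for compounds that break the NR2E3 corepressor complex and count as activators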
[8] = target: Cytochrome P450 2C9 (Homo sapiens, UniProt P11712); settings: Potency
[9] = target: T2, Beta-lactamase (Pseudomonas aeruginosa, UniProt Q79MP6); test: […] counterscreen for selective VIM-2 inhibitors: dose response biochemical high throughput screening assay to identify inhibitors of IMP-1 metallo-beta-lactamase.
[10] = target: Cyclin-dependent kinase 5/CDK5 activator 1 (Homo sapiens, UniProt Q00535); test: CDK5/p35 kinase inhibitors, dose response, biochemical, cherry-picked samples, set 2 (AID 504545)
[11] = target: Beta-lactamase (Salmonella choleraesuis (strain SC-B67), UniProt Q5J463); test: Epi-absorbance-based counterscreen for selective VIM-2 inhibitors: dose response biochemical high throughput screening assay to identify inhibitors of TEM-1 serine-beta-lactamase.
[12] = target: T2, Beta-lactamase; test: IMP-1 metallo-beta-lactamase inhibitors, dose response, selectivity assay for VIM-2 inhibitor project, biochemical, epi-absorbance (AID 1920)
[13] = target: Neurotensin receptor type 1 (Homo sapiens, UniProt P30989); format: functional;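 also: Image-based confirmatory dose-response assay measuring agonist activity at NTR1; NTR1-expressing U2OS osteosarcoma cells imaged for beta-arrestin GFP spot formation; agonist potency where compounds increase beta-arrestin recruitment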
[14] = target: T3, Streptokinase A (Streptococcus pyogenes serotype M1, UniProt P10520); test: S. pyogenes streptokinase expression inhibitors, potency, dose response, plasminogen activation absorbance, OD405 (AID 1914); format: functional, Streptococcus pyogenes M1 GAS;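 also: secreted streptokinase activity via plasminogen activation per viability signal from cell pellet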
T3 sequence (P10520 whole entry): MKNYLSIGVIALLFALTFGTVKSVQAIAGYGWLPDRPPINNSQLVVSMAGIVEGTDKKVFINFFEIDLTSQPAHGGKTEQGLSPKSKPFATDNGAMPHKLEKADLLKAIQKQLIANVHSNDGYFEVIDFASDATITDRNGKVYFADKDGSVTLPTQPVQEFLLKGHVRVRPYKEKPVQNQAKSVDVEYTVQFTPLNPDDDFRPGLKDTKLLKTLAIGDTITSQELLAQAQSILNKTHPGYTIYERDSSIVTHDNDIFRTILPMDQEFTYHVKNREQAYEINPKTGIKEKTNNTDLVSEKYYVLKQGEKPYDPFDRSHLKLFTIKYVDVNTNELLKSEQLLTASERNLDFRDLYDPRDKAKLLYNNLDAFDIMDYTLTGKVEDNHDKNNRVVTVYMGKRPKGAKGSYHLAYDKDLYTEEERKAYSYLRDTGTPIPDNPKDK

[15] = target: T4, Calpain-2 catalytic subunit (Sus scrofa, UniProt P43367); test: pig calpain II inhibitor potency, dose response, biochemical, fluorogenic peptide substrate (AID 1420); format: functional
T4 sequence (P43367 whole entry): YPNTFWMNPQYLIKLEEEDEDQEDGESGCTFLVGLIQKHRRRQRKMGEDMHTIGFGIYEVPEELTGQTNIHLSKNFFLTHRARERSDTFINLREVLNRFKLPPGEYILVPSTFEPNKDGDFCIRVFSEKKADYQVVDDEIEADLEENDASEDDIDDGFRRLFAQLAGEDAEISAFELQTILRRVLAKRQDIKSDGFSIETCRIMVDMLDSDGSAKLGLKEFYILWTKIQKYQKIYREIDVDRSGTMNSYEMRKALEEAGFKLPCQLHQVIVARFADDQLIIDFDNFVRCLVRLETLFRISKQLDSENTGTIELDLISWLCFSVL

[16] = test system: Streptococcus sp. 'group A'; test: growth inhibition of control SK(-) GAS strain, dose response, counter-screen for streptokinase expression inhibitor project, luminescence, kanamycin, BacTiterGlo, confirmation (AID 1900); format: functional, organism-based
[17] = test system: Streptococcus; test: Group A Streptococcus viability loss, dose response, counter-screen for streptokinase expression inhibitor project, luminescence, BacTiterGlo (AID 1915); format: functional, organism-based;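 also: potency for reduction of bacterial viability or growth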
[18] = target: Cytochrome P450 3A4 (Homo sapiens, UniProt P08684); settings: Potency;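 also: confirmatory qHTS run detecting inhibitors and substrates of CYP3A4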
Cytochrome P450 3A4, sequence (P08684 whole entry): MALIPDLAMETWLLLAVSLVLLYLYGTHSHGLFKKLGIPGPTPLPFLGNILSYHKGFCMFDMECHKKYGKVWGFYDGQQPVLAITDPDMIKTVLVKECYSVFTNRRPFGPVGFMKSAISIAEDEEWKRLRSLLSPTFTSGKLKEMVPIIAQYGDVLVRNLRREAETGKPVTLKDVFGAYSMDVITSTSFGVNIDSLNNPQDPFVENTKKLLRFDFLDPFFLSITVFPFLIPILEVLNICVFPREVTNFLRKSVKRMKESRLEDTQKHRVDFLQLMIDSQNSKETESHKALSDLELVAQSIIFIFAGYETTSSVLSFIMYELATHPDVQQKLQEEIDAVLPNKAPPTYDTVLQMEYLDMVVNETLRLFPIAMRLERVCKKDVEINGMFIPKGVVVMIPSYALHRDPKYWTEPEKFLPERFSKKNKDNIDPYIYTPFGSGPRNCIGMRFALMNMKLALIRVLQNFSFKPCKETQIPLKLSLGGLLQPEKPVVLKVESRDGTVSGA

Cytochrome P450 2C9, sequence (P11712 whole entry): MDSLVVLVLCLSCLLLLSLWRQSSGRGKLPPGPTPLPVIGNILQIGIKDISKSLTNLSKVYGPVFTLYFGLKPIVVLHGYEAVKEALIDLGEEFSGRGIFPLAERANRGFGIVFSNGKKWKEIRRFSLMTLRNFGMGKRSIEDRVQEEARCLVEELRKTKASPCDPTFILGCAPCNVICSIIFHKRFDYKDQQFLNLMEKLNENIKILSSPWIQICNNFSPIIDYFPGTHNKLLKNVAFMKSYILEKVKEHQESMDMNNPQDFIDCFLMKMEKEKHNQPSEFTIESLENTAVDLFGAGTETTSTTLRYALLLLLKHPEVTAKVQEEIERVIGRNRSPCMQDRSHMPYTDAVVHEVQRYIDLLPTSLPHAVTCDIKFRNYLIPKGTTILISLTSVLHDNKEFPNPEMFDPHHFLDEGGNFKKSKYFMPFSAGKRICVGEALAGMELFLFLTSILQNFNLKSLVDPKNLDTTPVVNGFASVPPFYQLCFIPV
Scavenger receptor class B member 1, sequence (Q61009 whole entry): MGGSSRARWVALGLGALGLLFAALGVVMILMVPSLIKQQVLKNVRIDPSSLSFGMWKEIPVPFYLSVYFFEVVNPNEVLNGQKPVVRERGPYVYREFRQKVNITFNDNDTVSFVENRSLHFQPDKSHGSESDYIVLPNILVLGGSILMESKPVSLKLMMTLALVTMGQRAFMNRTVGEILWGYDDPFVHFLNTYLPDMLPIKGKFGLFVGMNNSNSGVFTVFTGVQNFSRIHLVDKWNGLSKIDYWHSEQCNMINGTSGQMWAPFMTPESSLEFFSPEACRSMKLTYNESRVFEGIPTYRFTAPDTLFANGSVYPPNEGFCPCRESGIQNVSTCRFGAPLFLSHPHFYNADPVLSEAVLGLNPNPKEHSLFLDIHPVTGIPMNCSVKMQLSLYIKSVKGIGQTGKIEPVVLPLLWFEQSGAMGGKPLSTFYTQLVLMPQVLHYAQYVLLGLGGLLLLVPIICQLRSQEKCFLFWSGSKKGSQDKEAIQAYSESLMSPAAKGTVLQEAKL
T2 sequence (Q79MP6 whole entry): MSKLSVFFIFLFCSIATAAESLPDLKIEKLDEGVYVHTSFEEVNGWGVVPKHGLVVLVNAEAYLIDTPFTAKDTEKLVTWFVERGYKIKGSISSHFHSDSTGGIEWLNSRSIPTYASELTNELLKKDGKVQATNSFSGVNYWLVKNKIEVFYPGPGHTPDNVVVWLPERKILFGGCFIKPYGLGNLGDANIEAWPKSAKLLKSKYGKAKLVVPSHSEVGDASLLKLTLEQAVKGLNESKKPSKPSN
Peroxisome proliferator-activated receptor gamma/Nuclear receptor corepressor 2, sequence (P37231 whole entry): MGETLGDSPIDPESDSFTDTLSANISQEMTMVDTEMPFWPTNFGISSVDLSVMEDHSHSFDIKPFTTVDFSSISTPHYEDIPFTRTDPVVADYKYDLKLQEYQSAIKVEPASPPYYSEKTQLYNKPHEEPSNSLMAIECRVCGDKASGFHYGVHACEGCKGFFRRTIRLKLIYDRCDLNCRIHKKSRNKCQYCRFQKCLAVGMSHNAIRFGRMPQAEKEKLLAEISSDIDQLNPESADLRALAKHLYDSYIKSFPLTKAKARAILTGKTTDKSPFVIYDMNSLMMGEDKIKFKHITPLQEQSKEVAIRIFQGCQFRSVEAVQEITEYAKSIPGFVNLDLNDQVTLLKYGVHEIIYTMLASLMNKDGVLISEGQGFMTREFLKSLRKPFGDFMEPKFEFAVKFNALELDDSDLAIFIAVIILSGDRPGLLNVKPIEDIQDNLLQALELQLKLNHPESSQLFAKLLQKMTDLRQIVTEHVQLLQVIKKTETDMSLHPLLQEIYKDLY
Peroxisome proliferator-activated receptor gamma/Nuclear receptor corepressor 2, sequence (Q9Y618 whole entry): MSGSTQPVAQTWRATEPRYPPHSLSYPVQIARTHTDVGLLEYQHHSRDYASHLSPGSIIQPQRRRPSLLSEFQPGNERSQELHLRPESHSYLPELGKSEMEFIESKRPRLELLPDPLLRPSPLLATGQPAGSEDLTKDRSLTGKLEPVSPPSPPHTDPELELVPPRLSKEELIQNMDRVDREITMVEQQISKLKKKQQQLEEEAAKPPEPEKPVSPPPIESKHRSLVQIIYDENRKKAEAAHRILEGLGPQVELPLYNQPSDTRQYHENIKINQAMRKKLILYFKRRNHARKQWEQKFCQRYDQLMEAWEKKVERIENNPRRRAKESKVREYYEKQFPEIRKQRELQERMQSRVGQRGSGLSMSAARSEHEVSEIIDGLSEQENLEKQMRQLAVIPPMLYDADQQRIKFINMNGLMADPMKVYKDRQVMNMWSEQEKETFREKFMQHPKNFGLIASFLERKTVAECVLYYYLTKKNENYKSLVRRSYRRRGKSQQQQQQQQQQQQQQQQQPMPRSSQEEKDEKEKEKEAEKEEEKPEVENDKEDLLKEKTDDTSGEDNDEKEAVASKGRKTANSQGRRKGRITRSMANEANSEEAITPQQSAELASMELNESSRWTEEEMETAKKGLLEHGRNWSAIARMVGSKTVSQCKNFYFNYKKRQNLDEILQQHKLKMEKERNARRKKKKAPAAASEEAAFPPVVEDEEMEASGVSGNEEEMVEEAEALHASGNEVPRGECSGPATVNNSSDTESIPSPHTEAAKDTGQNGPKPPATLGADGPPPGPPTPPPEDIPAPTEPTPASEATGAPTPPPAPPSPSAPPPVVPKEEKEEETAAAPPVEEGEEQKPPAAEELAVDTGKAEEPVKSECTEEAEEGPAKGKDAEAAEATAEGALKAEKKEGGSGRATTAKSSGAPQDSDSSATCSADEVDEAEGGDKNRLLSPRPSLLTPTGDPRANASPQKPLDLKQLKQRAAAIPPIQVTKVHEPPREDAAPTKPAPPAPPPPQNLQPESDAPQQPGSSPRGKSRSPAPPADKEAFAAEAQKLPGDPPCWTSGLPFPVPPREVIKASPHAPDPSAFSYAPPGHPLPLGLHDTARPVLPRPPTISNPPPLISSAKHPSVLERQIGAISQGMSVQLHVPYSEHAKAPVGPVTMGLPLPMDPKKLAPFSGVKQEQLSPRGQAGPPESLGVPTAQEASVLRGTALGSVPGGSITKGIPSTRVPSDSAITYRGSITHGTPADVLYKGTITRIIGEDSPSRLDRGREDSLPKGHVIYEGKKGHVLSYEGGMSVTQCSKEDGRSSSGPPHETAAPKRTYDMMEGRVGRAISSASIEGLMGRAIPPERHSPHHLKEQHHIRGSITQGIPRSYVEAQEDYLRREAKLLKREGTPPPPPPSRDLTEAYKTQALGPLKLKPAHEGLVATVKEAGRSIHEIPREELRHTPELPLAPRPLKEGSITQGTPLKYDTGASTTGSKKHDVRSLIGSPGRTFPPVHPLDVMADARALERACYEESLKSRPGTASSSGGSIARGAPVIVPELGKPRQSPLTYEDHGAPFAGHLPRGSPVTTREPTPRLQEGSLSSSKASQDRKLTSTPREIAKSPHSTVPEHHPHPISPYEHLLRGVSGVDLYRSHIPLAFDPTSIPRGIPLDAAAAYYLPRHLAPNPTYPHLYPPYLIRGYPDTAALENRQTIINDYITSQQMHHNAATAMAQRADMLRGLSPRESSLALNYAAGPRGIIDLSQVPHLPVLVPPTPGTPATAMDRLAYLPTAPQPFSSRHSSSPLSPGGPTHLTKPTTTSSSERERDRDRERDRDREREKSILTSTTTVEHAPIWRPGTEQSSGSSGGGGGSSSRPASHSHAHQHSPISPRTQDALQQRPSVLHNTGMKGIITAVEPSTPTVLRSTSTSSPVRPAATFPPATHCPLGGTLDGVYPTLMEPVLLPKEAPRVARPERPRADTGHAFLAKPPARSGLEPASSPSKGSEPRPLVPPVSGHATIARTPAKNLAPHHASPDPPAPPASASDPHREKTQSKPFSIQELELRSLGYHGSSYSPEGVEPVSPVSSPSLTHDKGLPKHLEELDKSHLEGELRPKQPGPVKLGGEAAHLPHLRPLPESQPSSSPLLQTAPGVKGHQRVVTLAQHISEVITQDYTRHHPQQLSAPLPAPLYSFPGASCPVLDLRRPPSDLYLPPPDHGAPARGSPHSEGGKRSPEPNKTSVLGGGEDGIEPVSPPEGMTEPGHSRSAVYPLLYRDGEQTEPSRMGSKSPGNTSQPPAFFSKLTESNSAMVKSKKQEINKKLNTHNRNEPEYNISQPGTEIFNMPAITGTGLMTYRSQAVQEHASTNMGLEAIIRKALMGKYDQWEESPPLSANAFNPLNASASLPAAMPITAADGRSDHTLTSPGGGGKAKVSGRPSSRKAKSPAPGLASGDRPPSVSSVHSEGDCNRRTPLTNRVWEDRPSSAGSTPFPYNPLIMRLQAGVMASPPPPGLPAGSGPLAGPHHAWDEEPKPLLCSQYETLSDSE
Beta-lactamase (Salmonella choleraesuis (strain SC-B67), UniProt Q5J463), sequence (Q5J463 whole entry): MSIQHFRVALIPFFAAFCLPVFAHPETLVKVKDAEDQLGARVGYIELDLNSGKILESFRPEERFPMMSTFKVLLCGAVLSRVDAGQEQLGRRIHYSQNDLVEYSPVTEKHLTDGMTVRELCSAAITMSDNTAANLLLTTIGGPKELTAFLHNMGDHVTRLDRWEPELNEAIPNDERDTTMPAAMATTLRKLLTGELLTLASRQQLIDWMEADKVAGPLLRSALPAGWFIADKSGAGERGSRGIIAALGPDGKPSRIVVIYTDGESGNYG

Q: With COc1ccc(-n2sc3c(c2=S)-c2cc(OC)ccc2NC3(C)C)cc1 as the compound, how does the CC50 [1] read?
A: 18.4 µM (active)

Q: What about the AC50 [2] of the same compound?
A: 16.1 µM (active)

Q: And the AC50 [3]?
A: 2.53 µM (active)

Q: With Oc1cc(OCc2ccccc2)ccn1 as the compound, how does the IC50 [4] read?
A: 16.6 µM (not active)

Q: And the AC50 [5]?
A: 11.5 µM (active)

Q: And the IC50 [6]?
A: 0.0261 µM (active)

Q: What about the IC50 [7] of the same compound?
A: > 39.8 µM (not active)

Q: For C/C=C/OC(=O)NC(c1ccccc1)[C@@]1(C(=O)OCC)CCCC1=O (stereo not given in full), which AC50 [8] is on record?
A: 3.98 µM (inconclusive)

Q: Which IC50 [9] does the source give for O=C1Nc2cc(C(=O)N3CCC(N4CCCCC4)CC3)ccc2S/C1=C\c1ccccc1 here?
A: > 59.6 µM (inactive)

Q: And the AC50 [10]?
A: 21.2 µM (active)

Q: And the IC50 [11]?
A: > 59.6 µM (inactive)

Q: And the IC50 [12]?
A: > 59.6 µM (inactive)

Q: For CC(C)OCCCNC(=O)c1ccc(C2SCC(=O)N2Cc2ccco2)cc1 (stereo not given), which AC50 [2] is on record?
A: 1 µM (active)

Q: With CC(C)C[C@H](NC(=O)c1[nH]cnc1C(=O)N[C@@H](C)c1ccccc1)C(=O)OCc1ccccc1 as the compound, how does the EC50 [13] read?
A: 5.4 µM (active)

Q: And the EC50 [14]?
A: > 150 µM (inconclusive)

Q: And the IC50 [15]?
A: 5.23 µM (not active)

Q: What about the EC50 [16] of the same compound?
A: 0.656 µM (active)

Q: What about the EC50 [17] of the same compound?
A: 40.7 µM (active)

Q: Which AC50 [18] does the source give for COc1ccc(OC)c(-c2ccccc2/C=N/NS(=O)(=O)c2ccc(C)cc2)c1 here?
A: 3.16 µM (inconclusive)

Q: What about the AC50 [8] of the same compound?
A: 7.94 µM (inconclusive)
